Drawing on ChEMBL document CHEMBL1133025, “The utilization of a unified pharmacophore query in the discovery of new antagonists of the adenosine receptor family” (Bioorg Med Chem Lett, 2000), this text covers inhibition, Ki and IC50 for eight compounds.

One may read the inhibition as the share of the control response that was lost under treatment. A lower inhibition goes with a weak effect. In general, Ki refers to the equilibrium dissociation constant of an inhibitor or competing ligand from its target. A higher Ki goes with weaker binding. For orientation: IC50 means the concentration that inhibits the measured activity by half. High values mean weaker potency, low ones greater potency.

Assay [1] addresses T1, Adenosine receptor A3 (Homo sapiens) (UniProt P0DMS8).
T1 sequence (whole entry): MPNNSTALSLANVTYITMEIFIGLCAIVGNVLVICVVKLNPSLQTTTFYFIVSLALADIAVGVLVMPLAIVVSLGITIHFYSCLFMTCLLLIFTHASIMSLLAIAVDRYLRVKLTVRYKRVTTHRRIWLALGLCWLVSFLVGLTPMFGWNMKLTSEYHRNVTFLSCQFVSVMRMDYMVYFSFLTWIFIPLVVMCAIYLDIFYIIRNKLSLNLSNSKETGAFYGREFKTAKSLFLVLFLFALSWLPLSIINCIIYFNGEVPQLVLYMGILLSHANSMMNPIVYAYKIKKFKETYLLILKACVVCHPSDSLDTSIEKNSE
The assay is described as follows: In vitro inhibitory activity against human Adenosine A3 receptor at 10e-5 M.

Assay [2] deals with T2, Adenosine receptor A3 (Homo sapiens, UniProt P0DMS8).
T2 sequence (P0DMS8 whole entry): T1 sequence (whole entry)
The assay is described as follows: In vitro binding affinity against human Adenosine A3 receptor.

Assay [3] has as its target T2, Adenosine receptor A3. The assay can be described thus: Inhibition of [35S]GTP-gamma-S, binding stimulated by 20 uM 5''-N-ethyluronamidoadenosine (NECA) in membranes of HEK293 cells expressing human Adenosine A3 receptor. Type of assay: functional, cell membranes. In general terms: GTPγS is a poorly hydrolysed GTP analogue; its binding reports G protein activation.

Assay [4] has as its target T2, Adenosine receptor A3. The assay is described as follows: Inhibition of [35S]GTP-gamma-S, binding stimulated by 5 uM 5''-N-ethyluronamidoadenosine (NECA) in membranes of HEK293 cells expressing human Adenosine A3 receptor. Type of assay: functional, cell membranes.

In assay [1], `COc1ccc(N(CC(=O)Nc2cccc(Cl)c2C)S(=O)(=O)c2ccccc2)cc1` displayed an inhibition of 65%.

For `O=C(NCCc1c[nH]c2ccc(OCc3ccccc3)cc12)c1ccco1`, the inhibition in assay [1] came to 70%. The same measure, in the same setting: to `Cc1ccc(N(CC(=O)N/N=C/c2ccccc2O)S(=O)(=O)c2ccccc2)cc1` belongs 65%; to `CC(NC(=O)OCc1ccccc1)C(=O)Oc1cc(O)c2c(=O)cc(-c3ccccc3)oc2c1` (stereo unspecified), 60%. In turn, `COc1ccc(-c2csc(NC3OC(=O)c4c3ccc(OC)c4OC)n2)cc1` (stereo unspecified) yielded a Ki in assay [2] of 1300 nM. The same compound showed an IC50 in assay [3] of 255 nM. For `CCOC(=O)c1c(NC(=O)Cc2ccccc2)sc2c1CCN(C(=O)OCC)C2` the same measures were 600 nM and 186 nM. `CCSc1nnc2c(n1)OC(c1ccc(-c3ccc(Cl)cc3)o1)Nc1ccccc1-2` (stereo unspecified) returned an inhibition in assay [1] of 60%. Compound `CCOC(=O)CNC(c1ccccc1)c1cc(Br)ccc1NC(=O)c1ccccc1` (stereo unspecified) displayed a half-inhibitory concentration (IC50) in assay [4] of 407 nM. Besides, affinity in assay [2] was put at a Ki of 3100 nM.
